Experiments:
Format in all cases: in vivo, female NOD-SCID mice
PVNS grafts [1] = test: Vascular permeability assay (Evans blue) in PVNS grafts; details: PVNS-PDX mice, after 14 days of FK866 30 mg/kg i.p.; mean±S.E.M.; p<0.001 vs. PDX group (14.93±2.003)
Source text: (§1) A PVNS-human-derived tissue xenograft (PDX) tumor model was established using female NOD-SCID gnotobiotic mice aged 5 to 6 weeks. The human-derived tissue was sourced from the tumor tissue of patients with a confirmed diagnosis of PVNS who underwent surgery. During the surgery, viable synovial tissue was collected and then transplanted to construct the PVNS-PDX tumor model. The mice were purchased from Vital River Laboratory Animal Technology Co., Ltd. (Beijing, China) and were housed in micro-isolator cages under specific pathogen-free conditions. Tumor grafts were prepared using sterile SmartFlow (Airtech, China). After removing the necrotic tissue, the tumor tissue was rinsed three times with physiological saline. Subsequently, the tumor mass was segmented into small pieces (diameter ranging from 1.0 to 3.0 mm) using a surgical blade. The tumor tissue (graft) was suspended in serum-free Dulbecco's Modified Eagle Medium and then cryopreserved for implantation. The surgery was carried out by using an anesthesia machine. […] Tumor size was measured under a microscope and calculated using the formula […], where L is the length and W is the width.
[…] The concentration of Evans blue in the tissue extract was measured using a microplate reader at a wavelength of 630 nm and a standard curve of Evans blue concentration. […]

fibrinogen (FGB) = test: Immunofluorescence staining of FGB and CD31 in PVNS-PDX mice; details: FK866 30 mg/kg i.p., in contrast to the PDX group
Source text: as §1
The frozen tissue sections were thawed at room temperature for 1 hour. […] The tissue sections were observed using a fluorescence microscope, and the fluorescence intensity was assessed using ImageJ. […]

PVNS grafts [2] = test: PVNS-PDX tumor model, tumor growth / final tumor size; details: PVNS-PDX mice, 14 days of FK866 treatment, 30 mg/kg i.p.
Source text: as §1, with “machine. Mice were anesthetized with 2.5% isoflurane and kept in a lateral position. The skin was sterilely prepared using surgical-grade povidone-iodine, and a small dorsal midline incision (approximately 20.0 mm) was made in the kidney area.” for “machine.”

JUND [3] = test: Western blot of JUND in synovium of PVNS-PDX mice; details: FK866 30 mg/kg i.p. twice daily, four consecutive days weekly, two weeks, compared to the PDX group
Source text: as §1, with “saline.” for “saline. Subsequently, the tumor mass was segmented into small pieces (diameter ranging from 1.0 to 3.0 mm) using a surgical blade. The tumor tissue (graft) was suspended in serum-free Dulbecco's Modified Eagle Medium and then cryopreserved for implantation. The surgery was carried out by using an anesthesia machine.”
Synovial tissue lysates were prepared using RIPA buffer supplemented with PMSF, incubated on ice, and physically sheared for 25 min. The proteins were extracted, and their concentration was measured using the BCA protein assay kit (Beyotime, P0011). […] Band intensity was quantified using ImageJ software version 1.39 V. The primary antibodies used were: anti-NAMPT (1:1000, ABclonal, A0256); anti-ITGA5 (1:1000, ABclonal, A19069); anti-JUND (1:1000, ABclonal, A5496); and anti-β-actin (1:1000, ABclonal, AC006).

JUND [4] = test: Immunohistochemistry of JUND in PVNS-PDX mice; details: FK866 30 mg/kg i.p. twice daily, four consecutive days weekly, two weeks, compared to the PDX group
Source text: as §1
The synovial tissue was fixed in 10% neutral buffered formalin for two days, followed by dehydration with a series of graded ethanol. […] The integrated optical density values of positive staining were evaluated using ImageJ software.

Structure (SMILES): O=C(/C=C/c1cccnc1)NCCCCC1CCN(C(=O)c2ccccc2)CC1 [FK866]
- Evan's blue dye concentration in PVNS grafts (vascular leakage) (PVNS grafts [1]): 4.040±1.618 ng Evan's blue dye/mg tissue
- FGB deposition around the blood vessels (immunofluorescence) (fibrinogen (FGB)): significantly reduced
- Tumor growth (PVNS grafts [2]): significantly inhibited
- JUND expression (WB analysis) (JUND [3]): significant decrease
- JUND expression (IHC staining) (JUND [4]): notable reduction
